# Data taken from PubChem BioAssay AID1845207 (Molecular Pharmacology Branch, DTP, NCI, 2023).
# Values joined by “and” are separate entries in the source; they are usually repeats but may differ in a detail not shown here. Identical values can stand only once.
# Test system: NCI-H1876 tumor spheroid viability
# Experiment: Anticancer human tumor NCI-H1876 cell line growth inhibition;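 note: spheroids exposed to compounds for seven days before the viability read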;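 for viability, T/C: percent of DMSO vehicle control viability so 100% = vehicle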
# Conditions: spheroids with HUVEC and MSC; for IC50: curve of first compound; for viability, T/C: stronger effect = lower value
# Method in brief: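 Complex spheroids of malignant cells with endothelial cells and mesenchymal stem cells; agents alone or combined, from near clinical Cmax (or 10 microM if unknown) down in half-log steps, 0.25% DMSO final.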
smiles,measurement,setting,value
O=C(c1cc(Cc2n[nH]c(=O)c3ccccc23)ccc1F)N1CCN(C(=O)C2CC2)CC1 + Cn1nnc2c(C(N)=O)ncn2c1=O,IC50,second compound 1 µM,6.95 µM
same,IC50,second compound 3.16 µM,25.4 µM
same,IC50,second compound 10 µM,9.73 µM
same,IC50,second compound 31.6 µM,2.7 µM
same,IC50,second compound 100 µM,< 0.0949 µM
same,"viability, T/C","second compound 1 µM, first compound 0.0949 µM",85.1%
same,"viability, T/C","second compound 1 µM, first compound 0.3 µM",69.8%
same,"viability, T/C","second compound 1 µM, first compound 0.949 µM",77.8%
same,"viability, T/C","second compound 1 µM, first compound 3 µM",64.6%
same,"viability, T/C","second compound 1 µM, first compound 9.49 µM",32.2%
same,"viability, T/C","second compound 1 µM, first compound 30 µM",56.9%
same,"viability, T/C","second compound 3.16 µM, first compound 0.0949 µM",89.8%
same,"viability, T/C","second compound 3.16 µM, first compound 0.3 µM",82.4%
same,"viability, T/C","second compound 3.16 µM, first compound 0.949 µM",72.7%
same,"viability, T/C","second compound 3.16 µM, first compound 3 µM",61.5%
same,"viability, T/C","second compound 3.16 µM, first compound 9.49 µM",65.2%
same,"viability, T/C","second compound 3.16 µM, first compound 30 µM",45.1%
same,"viability, T/C","second compound 10 µM, first compound 0.0949 µM",79.2%
same,"viability, T/C","second compound 10 µM, first compound 0.3 µM",70.3%
same,"viability, T/C","second compound 10 µM, first compound 0.949 µM",64.6%
same,"viability, T/C","second compound 10 µM, first compound 3 µM",53.7%
same,"viability, T/C","second compound 10 µM, first compound 9.49 µM",60%
same,"viability, T/C","second compound 10 µM, first compound 30 µM",17.2%
same,"viability, T/C","second compound 31.6 µM, first compound 0.0949 µM",75.3%
same,"viability, T/C","second compound 31.6 µM, first compound 0.3 µM",69.4%
same,"viability, T/C","second compound 31.6 µM, first compound 0.949 µM",53.3%
same,"viability, T/C","second compound 31.6 µM, first compound 3 µM",55.7%
same,"viability, T/C","second compound 31.6 µM, first compound 9.49 µM",32.9%
same,"viability, T/C","second compound 31.6 µM, first compound 30 µM",15.8%
same,"viability, T/C","second compound 100 µM, first compound 0.0949 µM",54.7%
same,"viability, T/C","second compound 100 µM, first compound 0.3 µM",31.5%
same,"viability, T/C","second compound 100 µM, first compound 0.949 µM",29.6%
same,"viability, T/C","second compound 100 µM, first compound 3 µM",62.5%
same,"viability, T/C","second compound 100 µM, first compound 9.49 µM",18.8%
same,"viability, T/C","second compound 100 µM, first compound 30 µM",15.7%
COc1cc(C)[nH]c(=O)c1CN1CCc2c(Cl)cc(C(OC)C3COC3)c(Cl)c2C1=O (stereo unspecified) + Cn1nnc2c(C(N)=O)ncn2c1=O,IC50,second compound 1 µM,> 10 µM
same,IC50,second compound 3.16 µM,> 10 µM
same,IC50,second compound 10 µM,> 10 µM
same,IC50,second compound 31.6 µM,> 10 µM
same,IC50,second compound 100 µM,> 10 µM
same,"viability, T/C","second compound 1 µM, first compound 0.0316 µM",112%
same,"viability, T/C","second compound 1 µM, first compound 0.1 µM",108%
same,"viability, T/C","second compound 1 µM, first compound 0.316 µM",109%
same,"viability, T/C","second compound 1 µM, first compound 1 µM",90.8%
same,"viability, T/C","second compound 1 µM, first compound 3.16 µM",92.7%
same,"viability, T/C","second compound 1 µM, first compound 10 µM",70.4%
same,"viability, T/C","second compound 3.16 µM, first compound 0.0316 µM",117%
same,"viability, T/C","second compound 3.16 µM, first compound 0.1 µM",117%
same,"viability, T/C","second compound 3.16 µM, first compound 0.316 µM",110%
same,"viability, T/C","second compound 3.16 µM, first compound 1 µM",102%
same,"viability, T/C","second compound 3.16 µM, first compound 3.16 µM",89.9%
same,"viability, T/C","second compound 3.16 µM, first compound 10 µM",75.4%
same,"viability, T/C","second compound 10 µM, first compound 0.0316 µM",108%
same,"viability, T/C","second compound 10 µM, first compound 0.1 µM",109%
same,"viability, T/C","second compound 10 µM, first compound 0.316 µM",107%
same,"viability, T/C","second compound 10 µM, first compound 1 µM",100%
same,"viability, T/C","second compound 10 µM, first compound 3.16 µM",95%
same,"viability, T/C","second compound 10 µM, first compound 10 µM",79.1%
same,"viability, T/C","second compound 31.6 µM, first compound 0.0316 µM",108%
same,"viability, T/C","second compound 31.6 µM, first compound 0.1 µM",107%
same,"viability, T/C","second compound 31.6 µM, first compound 0.316 µM",107%
same,"viability, T/C","second compound 31.6 µM, first compound 1 µM",102%
same,"viability, T/C","second compound 31.6 µM, first compound 3.16 µM",86.5%
same,"viability, T/C","second compound 31.6 µM, first compound 10 µM",71.3%
same,"viability, T/C","second compound 100 µM, first compound 0.0316 µM",92.2%
same,"viability, T/C","second compound 100 µM, first compound 0.1 µM",91.4%
same,"viability, T/C","second compound 100 µM, first compound 0.316 µM",81.2%
same,"viability, T/C","second compound 100 µM, first compound 1 µM",81.4%
same,"viability, T/C","second compound 100 µM, first compound 3.16 µM",81.7%
same,"viability, T/C","second compound 100 µM, first compound 10 µM",72.3%
Cc1cc(C)c(CNC(=O)c2cc(-c3ccc(CN4CCOCC4)cc3)cc3c2cnn3C2CCCC2)c(=O)[nH]1,"viability, T/C",compound 0.0316 µM,100% and 97.7% and 96.6%
same,"viability, T/C",compound 0.1 µM,102% and 83.9% and 79.4%
same,"viability, T/C",compound 0.316 µM,105% and 63% and 63.8%
same,"viability, T/C",compound 1 µM,105% and 49.2% and 51.9%
same,"viability, T/C",compound 3.16 µM,107% and 28.4% and 30.3%
same,"viability, T/C",compound 10 µM,99.2% and 12% and 11.3%
